The record followed here is the supplement of paper PMC10307832.

Assay in all cases: relative viability (nuclei count vs DMSO), 5 days (fraction); higher = more cells survive
Compound in the test “NVP-TAE684 + Luminespib”: COc1cc(N2CCC(N3CCN(C)CC3)CC2)ccc1Nc1ncc(Cl)c(Nc2ccccc2S(=O)(=O)C(C)C)n1 [NVP-TAE684] + CCNC(=O)c1noc(-c2cc(C(C)C)c(O)cc2O)c1-c1ccc(CN2CCOCC2)cc1 [Luminespib] (partner 0.01 µM)
The procedure, abridged: (§1)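 Five library-drug doses in √10 steps were combined with a fixed anchor-drug dose, or a single drug was given alone, by pin tool to lung cancer cell lines in 1536-well plates the day after seeding. Nuclei were stained and counted after 5 days. Relative viability is the nuclei count in treated wells over that in vehicle wells, taken as the median of duplicate plates.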

Compound in the test “NVP-TAE684 + Alpelisib”: COc1cc(N2CCC(N3CCN(C)CC3)CC2)ccc1Nc1ncc(Cl)c(Nc2ccccc2S(=O)(=O)C(C)C)n1 [NVP-TAE684] + Cc1nc(NC(=O)N2CCC[C@H]2C(N)=O)sc1-c1ccnc(C(C)(C)C(F)(F)F)c1 [Alpelisib] (partner 2 µM)
In a few lines: as §1

Compound in the test “Vandetanib + Palbociclib”: COc1cc2/c(=N/c3ccc(Br)cc3F)nc[nH]c2cc1OCC1CCN(C)CC1 [Vandetanib] + CC(=O)c1c(C)c2cnc(Nc3ccc(N4CCNCC4)cn3)nc2n(C2CCCC2)c1=O [Palbociclib] (partner 0.5 µM)
The procedure, abridged: as §1

Compound in the test “Vandetanib + Pictilisib”: COc1cc2/c(=N/c3ccc(Br)cc3F)nc[nH]c2cc1OCC1CCN(C)CC1 [Vandetanib] + CS(=O)(=O)N1CCN(Cc2cc3nc(-c4cccc5[nH]ncc45)nc(N4CCOCC4)c3s2)CC1 [Pictilisib] (partner 1 µM)
In a few lines:
as §1

For the cell line EMC-BAC-2, the relative viability turned out to be 1.21 with NVP-TAE684 + Luminespib (first compound 0.6325 µM); 0.824 with NVP-TAE684 + Luminespib (first compound 2 µM); 0.704 with NVP-TAE684 + Alpelisib (first compound 0.2 µM); 0.759 with NVP-TAE684 + Alpelisib (first compound 0.6325 µM); 0.436 with NVP-TAE684 + Alpelisib (first compound 2 µM); 0.533 with Vandetanib + Palbociclib (first compound 0.02 µM). Besides, the relative viability with Vandetanib + Palbociclib (first compound 0.06325 µM) was determined as 0.499; in the test with Vandetanib + Palbociclib (first compound 0.2 µM) it was 0.546; in the test with Vandetanib + Palbociclib (first compound 0.6325 µM), 0.515; with Vandetanib + Palbociclib (first compound 2 µM), 0.502; in the test with Vandetanib + Pictilisib (first compound 0.02 µM), 0.556; in the test with Vandetanib + Pictilisib (first compound 0.06325 µM), 0.51. Further, the relative viability with Vandetanib + Pictilisib (first compound 0.2 µM) turned out to be 0.358; with Vandetanib + Pictilisib (first compound 0.6325 µM) it was 0.484; with Vandetanib + Pictilisib (first compound 2 µM), 0.538.
For the cell line NCI-H2170, the relative viability in the test with NVP-TAE684 + Luminespib (first compound 0.2 µM) was 0.747; with NVP-TAE684 + Luminespib (first compound 0.6325 µM), 0.618; with NVP-TAE684 + Luminespib (first compound 2 µM), 0.663; with NVP-TAE684 + Alpelisib (first compound 0.2 µM), 0.702; in the test with NVP-TAE684 + Alpelisib (first compound 0.6325 µM), 0.789; with NVP-TAE684 + Alpelisib (first compound 2 µM), 0.672. The relative viability with Vandetanib + Palbociclib (first compound 0.02 µM) is 0.402; in the test with Vandetanib + Palbociclib (first compound 0.06325 µM), 0.434; with Vandetanib + Palbociclib (first compound 0.2 µM), 0.398; with Vandetanib + Palbociclib (first compound 0.6325 µM) it was 0.376; in the test with Vandetanib + Palbociclib (first compound 2 µM), 0.394; with Vandetanib + Pictilisib (first compound 0.02 µM), 0.328. Also, the relative viability stood at 0.288 in the test with Vandetanib + Pictilisib (first compound 0.06325 µM), 0.267 with Vandetanib + Pictilisib (first compound 0.2 µM), 0.28 with Vandetanib + Pictilisib (first compound 0.6325 µM) and 0.31 with Vandetanib + Pictilisib (first compound 2 µM).
On to NCI-H2228, for which the relative viability was found to be 0.142 with NVP-TAE684 + Luminespib (first compound 0.2 µM); 0.116 with NVP-TAE684 + Luminespib (first compound 0.6325 µM); 0.0834 with NVP-TAE684 + Luminespib (first compound 2 µM); 0.381 with NVP-TAE684 + Alpelisib (first compound 0.2 µM); 0.255 with NVP-TAE684 + Alpelisib (first compound 0.6325 µM); 0.153 with NVP-TAE684 + Alpelisib (first compound 2 µM). Further, the relative viability came out at 0.718 with Vandetanib + Palbociclib (first compound 0.02 µM); 0.644 with Vandetanib + Palbociclib (first compound 0.06325 µM); 0.804 with Vandetanib + Palbociclib (first compound 0.2 µM); 0.725 with Vandetanib + Palbociclib (first compound 0.6325 µM); 0.659 with Vandetanib + Palbociclib (first compound 2 µM); 0.383 in the test with Vandetanib + Pictilisib (first compound 0.02 µM). Further, the relative viability with Vandetanib + Pictilisib (first compound 0.06325 µM) came out at 0.402; in the test with Vandetanib + Pictilisib (first compound 0.6325 µM), 0.399; in the test with Vandetanib + Pictilisib (first compound 2 µM) it was 0.297.
As for HCC-827, the relative viability is 0.52 with NVP-TAE684 + Luminespib (first compound 0.2 µM); 0.613 with NVP-TAE684 + Luminespib (first compound 0.6325 µM); 0.65 with NVP-TAE684 + Luminespib (first compound 2 µM); 1.05 with NVP-TAE684 + Alpelisib (first compound 0.2 µM); 1.05 in the test with NVP-TAE684 + Alpelisib (first compound 0.6325 µM); 0.822 with NVP-TAE684 + Alpelisib (first compound 2 µM). Further, the relative viability with Vandetanib + Palbociclib (first compound 0.02 µM) was 0.479; in the test with Vandetanib + Palbociclib (first compound 0.06325 µM), 0.468; with Vandetanib + Palbociclib (first compound 0.2 µM), 0.227; with Vandetanib + Palbociclib (first compound 0.6325 µM), 0.263; with Vandetanib + Palbociclib (first compound 2 µM), 0.166; with Vandetanib + Pictilisib (first compound 0.02 µM) it was 0.816. Besides, the relative viability with Vandetanib + Pictilisib (first compound 0.06325 µM) is 1.02; in the test with Vandetanib + Pictilisib (first compound 0.2 µM) it was 0.864; in the test with Vandetanib + Pictilisib (first compound 0.6325 µM) it was 0.664; in the test with Vandetanib + Pictilisib (first compound 2 µM), 0.355.
Consider LXF-289, for which the relative viability in the test with NVP-TAE684 + Luminespib (first compound 0.2 µM) stood at 0.583; with NVP-TAE684 + Luminespib (first compound 0.6325 µM) it was 0.776; with NVP-TAE684 + Luminespib (first compound 2 µM) it was 0.425; in the test with NVP-TAE684 + Alpelisib (first compound 0.2 µM) it was 1.08; with NVP-TAE684 + Alpelisib (first compound 0.6325 µM), 1.04; in the test with Vandetanib + Palbociclib (first compound 0.02 µM), 0.588. For the same cell line, the relative viability in the test with Vandetanib + Palbociclib (first compound 0.06325 µM) was found to be 0.565; with Vandetanib + Palbociclib (first compound 0.2 µM), 0.518; in the test with Vandetanib + Palbociclib (first compound 0.6325 µM), 0.575; with Vandetanib + Palbociclib (first compound 2 µM) it was 0.558; in the test with Vandetanib + Pictilisib (first compound 0.02 µM) it was 0.828; in the test with Vandetanib + Pictilisib (first compound 0.06325 µM), 0.771. The relative viability with Vandetanib + Pictilisib (first compound 0.2 µM) amounted to 0.773; with Vandetanib + Pictilisib (first compound 0.6325 µM) it was 0.792; with Vandetanib + Pictilisib (first compound 2 µM) it was 0.798.
As to HOP-62, the relative viability with NVP-TAE684 + Luminespib (first compound 0.2 µM) worked out at 1.03; in the test with NVP-TAE684 + Luminespib (first compound 0.6325 µM), 0.816; with NVP-TAE684 + Luminespib (first compound 2 µM), 0.882; in the test with NVP-TAE684 + Alpelisib (first compound 0.2 µM), 1.16; in the test with NVP-TAE684 + Alpelisib (first compound 0.6325 µM), 0.891; with NVP-TAE684 + Alpelisib (first compound 2 µM) it was 0.946. In addition, the relative viability with Vandetanib + Palbociclib (first compound 0.02 µM) worked out at 0.421; with Vandetanib + Palbociclib (first compound 0.06325 µM) it was 0.437; in the test with Vandetanib + Palbociclib (first compound 0.2 µM), 0.431; with Vandetanib + Palbociclib (first compound 0.6325 µM), 0.509; with Vandetanib + Palbociclib (first compound 2 µM), 0.412; with Vandetanib + Pictilisib (first compound 0.02 µM), 0.608. Also, the relative viability in the test with Vandetanib + Pictilisib (first compound 0.06325 µM) turned out to be 0.504; with Vandetanib + Pictilisib (first compound 0.2 µM), 0.669; with Vandetanib + Pictilisib (first compound 0.6325 µM) it was 0.495; with Vandetanib + Pictilisib (first compound 2 µM) it was 0.734.
For LCLC-103H, the relative viability with NVP-TAE684 + Luminespib (first compound 0.2 µM) is 0.918; with NVP-TAE684 + Luminespib (first compound 0.6325 µM), 0.923; with NVP-TAE684 + Luminespib (first compound 2 µM), 0.61; in the test with NVP-TAE684 + Alpelisib (first compound 0.2 µM), 0.99; in the test with NVP-TAE684 + Alpelisib (first compound 0.6325 µM) it was 0.986; with NVP-TAE684 + Alpelisib (first compound 2 µM), 0.995. The relative viability with Vandetanib + Palbociclib (first compound 0.02 µM) came out at 0.439; with Vandetanib + Palbociclib (first compound 0.06325 µM) it was 0.521; in the test with Vandetanib + Palbociclib (first compound 0.2 µM), 0.388; with Vandetanib + Palbociclib (first compound 0.6325 µM) it was 0.478; with Vandetanib + Palbociclib (first compound 2 µM), 0.406; with Vandetanib + Pictilisib (first compound 0.02 µM), 0.565. The relative viability is 0.518 with Vandetanib + Pictilisib (first compound 0.06325 µM), 0.563 in the test with Vandetanib + Pictilisib (first compound 0.2 µM), 0.528 with Vandetanib + Pictilisib (first compound 0.6325 µM) and 0.472 with Vandetanib + Pictilisib (first compound 2 µM).
Consider LOU-NH91, for which the relative viability with NVP-TAE684 + Luminespib (first compound 0.2 µM) came out at 0.305; with NVP-TAE684 + Luminespib (first compound 0.6325 µM), 0.339; in the test with NVP-TAE684 + Luminespib (first compound 2 µM) it was 0.296; with NVP-TAE684 + Alpelisib (first compound 0.2 µM), 0.68; with NVP-TAE684 + Alpelisib (first compound 0.6325 µM), 0.623; with NVP-TAE684 + Alpelisib (first compound 2 µM), 0.532. Also, the relative viability with Vandetanib + Palbociclib (first compound 0.02 µM) amounted to 0.564; with Vandetanib + Palbociclib (first compound 0.06325 µM), 0.524; in the test with Vandetanib + Palbociclib (first compound 0.2 µM), 0.535; with Vandetanib + Palbociclib (first compound 0.6325 µM) it was 0.543; with Vandetanib + Palbociclib (first compound 2 µM), 0.416; with Vandetanib + Pictilisib (first compound 0.02 µM), 0.528. The relative viability in the test with Vandetanib + Pictilisib (first compound 0.06325 µM) was found to be 0.565; with Vandetanib + Pictilisib (first compound 0.2 µM), 0.508; in the test with Vandetanib + Pictilisib (first compound 0.6325 µM) it was 0.524; with Vandetanib + Pictilisib (first compound 2 µM), 0.515.
